Reference: patent US20220323412A1, “EXTRACELLULAR VESICLE-FENRETINIDE COMPOSITIONS, EXTRACELLULAR VESICLE-C-KIT INHIBITOR COMPOSITIONS, METHODS OF MAKING AND USES THEREOF” (priority 2020, published 2022)

How the values were obtained:
[1] = cited from earlier work
[2] = test system: MCF-7 breast cancer cells; assay: CellTiter-Glo Luminescent Cell Viability Assay; format: cell-based, human
Experimental: EV-fenretinide was packaged in a manner similar to the protocol described in Example 2. EV-fenretinide was dosed onto MCF-7 breast cancer cells using the exemplary protocol below. Cell viability was measured using the Promega CellTiter-Glo® Luminescent Cell Viability Assay—a method of determining the number of viable cells in culture based on quantitation of the ATP present, an indicator of metabolically active cells.
Protocol steps: • 1. MCF-7 cells were cultured in Dulbecco's Modified Eagle's Medium (DMEM) supplemented with 10% exosome-free fetal bovine serum (FBS) supplemented with penicillin-streptomycin-glutamine (PSG; 100 units/mL penicillin, 100 μg/mL streptomycin and 2 mM L-glutamine) for 1-2 passages. • 2. MCF-7 cells were harvested, washed, counted and resuspended in culture medium (DMEM supplemented with 10% exosome-free FBS and PSG) at 5E5 cells/mL. • 3. The MCF-7 cells were seeded at 5E4 cells in a volume of 100 μL/well of culture medium in a white polystyrene 96-well tissue culture plate and incubated for 18-20 hrs at 37° C./5% CO2 humidified incubator. • 4. After 18-20 hrs of incubation, medium was removed from the wells and replaced with culture medium containing test agents. […] The plate was shaken for two minutes and then left to equilibrate for 10 minutes prior to reading the luminescence on a microplate reader (iD3-Molecular Devices).

CD-1 IGS mice = assay: Toxicology: serum and blood chemistry, complete blood count; format: in vivo, mouse
Experimental: Both arms were dosed via intravenous tail-vein injected at 0.23 mg/kg with a 4 mL/kg dose volume. The EV-fenretinide formulation was stored at −80° C. until injection into mice. Blood was collected at 2, 5, 10, 15, 30, 60, 120, 240, and 960 minutes, three mice were sacrificed at each time point, and tissue was collected at 30, 120 and 960 minutes. Spleen, liver, lung, kidney, brain and heart tissues were collected. Fenretinide amount in blood and tissue was measured via LC MS/MS mass spectrometry. Serum and hematology toxicology measurements were collected from the blood samples. Blood urea nitrogen (BUN), creatinine, and alanine aminotransferase were measured from serum.
Fenretinide-EVs and fenretinide-alone formulations were produced and dosed in the animal model as in Example 6. On the terminal blood draw of each animal, 20 μL of whole blood samples were used to measure complete blood count (CBC) on the Veterinary Hematology Analyzer (Hematrue, Heska).

[3] = DrugBank DB05076; cited from earlier work
[4] = CellTiter-Huor Cell Viability Assay; format: cell-based; conditions: human, ARPE-19 retinal pigment epithelium cells, read-out: cell viability or growth of untreated control
Experimental: EV-fenretinide was packaged and purified in a manner similar to the protocol described in Example 1. The extracellular vesicles used for packaging fenretinide was isolated from HEK293-F cells. A human retinal pigment epithelium (RPE) cell line, ARPE-19 (ATCC® CRL-2302™), isolated from normal eyes of an adult […], is treated with fenretinide alone or fenretinide-EV to examine the effect on viability of retinal pigment epithelium cells. ARPE-19 cells plated the night before were treated with fenretinide (resuspended in 100% DMSO) or fenretinide-EV (in PBS) at matched concentration of drug substance (active pharmaceutical ingredient (API)) dosed at either low (0.94 μM) or high (15 μM) fenretinide concentration. After 48 hrs at 37° C. in a humidified 5% CO2 incubator, cell viability is measured using CellTiter-Huor™ Cell Viability Assay (Promega) following the manufacturer's instructions to detect viable cells based on cell membrane integrity using a fluorogenic, cell-permeant, peptide substrate (Gly-Phe-AFC) which is cleaved to a fluorescent signal following entry into intact cells. The plate was read on plate reader at 380-400 nm excitation and —505 nm emission for live-cell fluorescence readout.

[5] = Retention and biodistribution of fenretinide in eye after intravitreal injection; format: in vivo, brown Norway rat; conditions: 24-hrs after intravitreal 5 μL per eye; 94.8 uM fenretinide-EV or 90.9 uM fenretinide alone
Experimental: Eye biodistribution of fenretinide formulated as 90.9 uM free fenretinide (excipient: 5% Ethanol, 12.5% Solutol-HS 15, 12.5% PEG 300, and 70% PBS) or 94.8 uM fenretinide-EV (in PBS) is administered to each eye of brown Norway rat (6 rats/treatment condition) by intravitreal injection (5 μL per eye). 24-hrs after administration, eyes were enucleated. Individual tissues were collected corresponding to cornea, conjunctiva, lens, vitreous humor, retina, RPE/choroid and sclera and analyzed for fenretinide content. In addition, total fenretinide content in each eye was also determined.

Row | Structure (SMILES) | solubility in water ([1]; Selleck Chem catalog) | viability at 40 µM ([2]; Homo sapiens, MCF7, MCF-7, 40 μM fenretinide, 48 hours) [%] | effect on cell viability over concentration ([2]; MCF-7, 0.625-40 μM, most notable after about 10 μM) | decrease in PLT (platelet concentration) versus Charles River general levels (CD-1 IGS mice; 16 hrs after intravenous 0.2288 mg/kg) [fold] | adverse effects based on serum and blood chemistry results (CD-1 IGS mice; intravenous 0.23 mg/kg) | logP [3] | solubility limit in water ([1]; water) | viability at 48 h, 0.94 μM ([4]; ARPE-19, 0.94 μM fenretinide equivalent) [%] | viability at 48 h, 15 μM ([4]; ARPE-19, 15 μM fenretinide equivalent) [%] | percentage of fenretinide remaining in eyes [5] [%]
1 | Cc1nc(Nc2ncc(C(=O)Nc3c(C)cccc3Cl)s2)cc(N2CCN(CCO)CC2)n1 [dasatinib] | insoluble in water | – | – | – | – | – | – | – | – | –
2 | CC1=C(/C=C/C(C)=C/C=C/C(C)=C/C(=O)Nc2ccc(O)cc2)C(C)(C)CCC1 [Fenretinide, N[4-hydroxyphenyl]retinamide] | – | ~20 | dose-dependent cell viability inhibition | 5 | did not exert apparent adverse effects | greater than 6 | about 1.71 μg/mL | 85.5 | 31 | 7
